Source: the NIST ThermoML archive (doi:10.1016/j.fluid.2018.06.013)
± gives the expanded uncertainty stated by the source.

Assay: activity coefficient (dimensionless); of the first substance listed, at infinite dilution; xn = mol fraction of the nth substance listed
Conditions: 100 kPa, Liquid, Chromatography, x1 = 0

## CCCC(=O)OC [methyl butanoate] + CCCC[N+]1(C)CCCC1.N#CN=C=[N-]
313.15 K
  activity coefficient: 2.92 ± 0.31
323.15 K
  activity coefficient: 3 ± 0.32
343.15 K
  activity coefficient: 3.16 ± 0.33
363.15 K
  activity coefficient: 3.25 ± 0.34
373.15 K
  activity coefficient: 3.34 ± 0.35

## CCC(=O)OC [methyl propanoate] + CCCC[N+]1(C)CCCC1.N#CN=C=[N-]
313.15 K
  activity coefficient: 2.07 ± 0.22
323.15 K
  activity coefficient: 2.09 ± 0.22
343.15 K
  activity coefficient: 2.22 ± 0.23
363.15 K
  activity coefficient: 2.33 ± 0.24
373.15 K
  activity coefficient: 2.4 ± 0.25

## CCCCCCCCC [nonane] + CCCC[N+]1(C)CCCC1.N#CN=C=[N-]
313.15 K
  activity coefficient: 172 ± 18
323.15 K
  activity coefficient: 154 ± 16
343.15 K
  activity coefficient: 133 ± 14
363.15 K
  activity coefficient: 120 ± 13
373.15 K
  activity coefficient: 114 ± 12

## C=CCCCCCC [oct-1-ene] + CCCC[N+]1(C)CCCC1.N#CN=C=[N-]
313.15 K
  activity coefficient: 47.8 ± 5
323.15 K
  activity coefficient: 46.3 ± 4.9
343.15 K
  activity coefficient: 42.8 ± 4.5
363.15 K
  activity coefficient: 40.3 ± 4.2
373.15 K
  activity coefficient: 39 ± 4.1

## CCCCCCCC [octane] + CCCC[N+]1(C)CCCC1.N#CN=C=[N-]
313.15 K
  activity coefficient: 119 ± 13
323.15 K
  activity coefficient: 111 ± 12
343.15 K
  activity coefficient: 96 ± 10
363.15 K
  activity coefficient: 86 ± 9.1
373.15 K
  activity coefficient: 81 ± 8.5

## CCCC(C)=O [pentan-2-one] + CCCC[N+]1(C)CCCC1.N#CN=C=[N-]
313.15 K
  activity coefficient: 1.73 ± 0.18
323.15 K
  activity coefficient: 1.79 ± 0.19
343.15 K
  activity coefficient: 1.89 ± 0.2
363.15 K
  activity coefficient: 1.96 ± 0.21
373.15 K
  activity coefficient: 2.02 ± 0.21

## CCC(=O)CC [pentan-3-one] + CCCC[N+]1(C)CCCC1.N#CN=C=[N-]
313.15 K
  activity coefficient: 1.7 ± 0.18
323.15 K
  activity coefficient: 1.76 ± 0.18
343.15 K
  activity coefficient: 1.9 ± 0.2
363.15 K
  activity coefficient: 1.99 ± 0.21
373.15 K
  activity coefficient: 2.04 ± 0.21

## CCCO [propan-1-ol] + CCCC[N+]1(C)CCCC1.N#CN=C=[N-]
313.15 K
  activity coefficient: 0.649 ± 0.068
323.15 K
  activity coefficient: 0.645 ± 0.068
343.15 K
  activity coefficient: 0.648 ± 0.068
363.15 K
  activity coefficient: 0.665 ± 0.07
373.15 K
  activity coefficient: 0.638 ± 0.067

## CC(C)O [propan-2-ol] + CCCC[N+]1(C)CCCC1.N#CN=C=[N-]
313.15 K
  activity coefficient: 0.744 ± 0.077
323.15 K
  activity coefficient: 0.719 ± 0.075
343.15 K
  activity coefficient: 0.714 ± 0.074
363.15 K
  activity coefficient: 0.711 ± 0.074
373.15 K
  activity coefficient: 0.696 ± 0.073

## CCC=O [propanal] + CCCC[N+]1(C)CCCC1.N#CN=C=[N-]
313.15 K
  activity coefficient: 1.04 ± 0.11
323.15 K
  activity coefficient: 1.05 ± 0.11
343.15 K
  activity coefficient: 1.1 ± 0.1
363.15 K
  activity coefficient: 1.16 ± 0.12
373.15 K
  activity coefficient: 1.21 ± 0.12

## c1ccncc1 [pyridine] + CCCC[N+]1(C)CCCC1.N#CN=C=[N-]
313.15 K
  activity coefficient: 1.02 ± 0.1
323.15 K
  activity coefficient: 1.05 ± 0.11
343.15 K
  activity coefficient: 1.07 ± 0.11
363.15 K
  activity coefficient: 1.11 ± 0.11
373.15 K
  activity coefficient: 1.13 ± 0.12

## C=Cc1ccccc1 [styrene] + CCCC[N+]1(C)CCCC1.N#CN=C=[N-]
313.15 K
  activity coefficient: 1.49 ± 0.15
323.15 K
  activity coefficient: 1.54 ± 0.16
343.15 K
  activity coefficient: 1.7 ± 0.18
363.15 K
  activity coefficient: 1.8 ± 0.19
373.15 K
  activity coefficient: 1.9 ± 0.2

## C1CCOC1 [tetrahydrofuran] + CCCC[N+]1(C)CCCC1.N#CN=C=[N-]
313.15 K
  activity coefficient: 1.34 ± 0.14
323.15 K
  activity coefficient: 1.39 ± 0.14
343.15 K
  activity coefficient: 1.48 ± 0.15
363.15 K
  activity coefficient: 1.56 ± 0.16
373.15 K
  activity coefficient: 1.6 ± 0.17

## c1ccsc1 [thiophene] + CCCC[N+]1(C)CCCC1.N#CN=C=[N-]
313.15 K
  activity coefficient: 0.807 ± 0.083
323.15 K
  activity coefficient: 0.845 ± 0.087
343.15 K
  activity coefficient: 0.929 ± 0.095
363.15 K
  activity coefficient: 1.01 ± 0.1
373.15 K
  activity coefficient: 1.05 ± 0.11

## Cc1ccccc1 [toluene] + CCCC[N+]1(C)CCCC1.N#CN=C=[N-]
313.15 K
  activity coefficient: 2.07 ± 0.22
323.15 K
  activity coefficient: 2.14 ± 0.22
343.15 K
  activity coefficient: 2.3 ± 0.24
363.15 K
  activity coefficient: 2.43 ± 0.26
373.15 K
  activity coefficient: 2.48 ± 0.26
